Assays:
Assay type in all cases: functional
[1] = system: Panel leukemia (Carcinoma cell lines); assay: cells; details: Homo sapiens, time 48 hrs
Description: Growth inhibition of human Panel leukemia (Carcinoma cell lines) incubated for 48 hrs by sulforhodamine B assay

[2] = system: CCRF-CEM; assay: cells; details: Homo sapiens, time 48 hrs
Description: Growth inhibition of human CCRF-CEM cells incubated for 48 hrs by sulforhodamine B assay

[3] = system: K562; assay: cells; details: Homo sapiens, time 48 hrs
Description: Growth inhibition of human K562 cells incubated for 48 hrs by sulforhodamine B assay

[4] = system: SR; assay: cells; details: Homo sapiens, time 48 hrs
Description: Growth inhibition of human SR cells incubated for 48 hrs by sulforhodamine B assay

[5] = system: A549; assay: cells; details: Homo sapiens, time 48 hrs
Description: Growth inhibition of human A549/ATCC cells incubated for 48 hrs by sulforhodamine B assay

[6] = system: HOP-62; assay: cells; details: Homo sapiens, time 48 hrs
Description: Growth inhibition of human HOP-62 cells incubated for 48 hrs by sulforhodamine B assay

[7] = system: HOP-92; assay: cells; details: Homo sapiens, time 48 hrs
Description: Growth inhibition of human HOP-92 cells incubated for 48 hrs by sulforhodamine B assay

[8] = system: NCI-H226; assay: cells; details: Homo sapiens, time 48 hrs
Description: Growth inhibition of human NCI-H226 cells incubated for 48 hrs by sulforhodamine B assay

[9] = system: NCI-H23; assay: cells; details: Homo sapiens, time 48 hrs
Description: Growth inhibition of human NCI-H23 cells incubated for 48 hrs by sulforhodamine B assay

[10] = system: NCI-H322M; assay: cells; details: Homo sapiens, time 48 hrs
Description: Growth inhibition of human NCI-H322M cells incubated for 48 hrs by sulforhodamine B assay

[11] = system: NCI-H460; assay: cells; details: Homo sapiens, time 48 hrs
Description: Growth inhibition of human NCI-H460 cells incubated for 48 hrs by sulforhodamine B assay

[12] = system: NCI-H522; assay: cells; details: Homo sapiens, time 48 hrs
Description: Growth inhibition of human NCI-H522 cells incubated for 48 hrs by sulforhodamine B assay

[13] = system: HCT-116; assay: cells; details: Homo sapiens, time 48 hrs
Description: Growth inhibition of human HCT-116 cells incubated for 48 hrs by sulforhodamine B assay

[14] = system: HCT-15; assay: cells; details: Homo sapiens, time 48 hrs
Description: Growth inhibition of human HCT-15 cells incubated for 48 hrs by sulforhodamine B assay

[15] = system: HT-29; assay: cells; details: Homo sapiens, time 48 hrs
Description: Growth inhibition of human HT-29 cells incubated for 48 hrs by sulforhodamine B assay

[16] = system: KM12; assay: cells; details: Homo sapiens, time 48 hrs
Description: Growth inhibition of human KM12 cells incubated for 48 hrs by sulforhodamine B assay

[17] = system: SF-295; assay: cells; details: Homo sapiens, time 48 hrs
Description: Growth inhibition of human SF-295 cells incubated for 48 hrs by sulforhodamine B assay

[18] = system: SNB-75; assay: cells; details: Homo sapiens, time 48 hrs
Description: Growth inhibition of human SNB-75 cells incubated for 48 hrs by sulforhodamine B assay

[19] = system: U-251; assay: cells; details: Homo sapiens, time 48 hrs
Description: Growth inhibition of human U-251 cells incubated for 48 hrs by sulforhodamine B assay

[20] = system: LOX IMVI; assay: cells; details: Homo sapiens, time 48 hrs
Description: Growth inhibition of human LOX IMVI cells incubated for 48 hrs by sulforhodamine B assay

[21] = system: SK-MEL-28; assay: cells; details: Homo sapiens, time 48 hrs
Description: Growth inhibition of human SK-MEL-28 cells incubated for 48 hrs by sulforhodamine B assay

[22] = system: UACC-257; assay: cells; details: Homo sapiens, time 48 hrs
Description: Growth inhibition of human UACC-257 cells incubated for 48 hrs by sulforhodamine B assay

[23] = system: UACC-62; assay: cells; details: Homo sapiens, time 48 hrs
Description: Growth inhibition of human UACC-62 cells incubated for 48 hrs by sulforhodamine B assay

[24] = system: IGROV-1; assay: cells; details: Homo sapiens, time 48 hrs
Description: Growth inhibition of human IGROV-1 cells incubated for 48 hrs by sulforhodamine B assay

[25] = system: OVCAR-3; assay: cells; details: Homo sapiens, time 48 hrs
Description: Growth inhibition of human OVCAR-3 cells incubated for 48 hrs by sulforhodamine B assay

[26] = system: OVCAR-4; assay: cells; details: Homo sapiens, time 48 hrs
Description: Growth inhibition of human OVCAR-4 cells incubated for 48 hrs by sulforhodamine B assay

[27] = system: OVCAR-8; assay: cells; details: Homo sapiens, time 48 hrs
Description: Growth inhibition of human OVCAR-8 cells incubated for 48 hrs by sulforhodamine B assay

[28] = system: A498; assay: cells; details: Homo sapiens, time 48 hrs
Description: Growth inhibition of human A498 cells incubated for 48 hrs by sulforhodamine B assay

[29] = system: RXF 393; assay: cells; details: Homo sapiens, time 48 hrs
Description: Growth inhibition of human RXF 393 cells incubated for 48 hrs by sulforhodamine B assay

[30] = system: TK-10; assay: cells; details: Homo sapiens, time 48 hrs
Description: Growth inhibition of human TK-10 cells incubated for 48 hrs by sulforhodamine B assay

[31] = system: UO-31; assay: cells; details: Homo sapiens, time 48 hrs
Description: Growth inhibition of human UO-31 cells incubated for 48 hrs by sulforhodamine B assay

[32] = system: PC-3; assay: cells; details: Homo sapiens, time 48 hrs
Description: Growth inhibition of human PC-3 cells incubated for 48 hrs by sulforhodamine B assay

[33] = system: MCF7; assay: cells; details: Homo sapiens, time 48 hrs
Description: Growth inhibition of human MCF7 cells incubated for 48 hrs by sulforhodamine B assay

[34] = system: MDA-MB-231; assay: cells; details: Homo sapiens, time 48 hrs
Description: Growth inhibition of human MDA-MB-231/ATCC cells incubated for 48 hrs by sulforhodamine B assay

[35] = system: Hs-578T; assay: cells; details: Homo sapiens, time 48 hrs
Description: Growth inhibition of human Hs-578T cells incubated for 48 hrs by sulforhodamine B assay

[36] = system: MDA-MB-468; assay: cells; details: Homo sapiens, time 48 hrs
Description: Growth inhibition of human MDA-MB-468 cells incubated for 48 hrs by sulforhodamine B assay

[37] = cells; details: Homo sapiens, Non-small cell lung cancer cell line; time 48 hrs
Description: Growth inhibition of human Non-small cell lung cancer cell line incubated for 48 hrs by sulforhodamine B assay

[38] = system: Panel colon (Carcinoma cell lines); assay: cells; details: Homo sapiens, time 48 hrs
Description: Growth inhibition of human Panel colon (Carcinoma cell lines) incubated for 48 hrs by sulforhodamine B assay

[39] = system: Panel CNS (Carcinoma cell lines); assay: cells; details: Homo sapiens, time 48 hrs
Description: Growth inhibition of human Panel CNS (Carcinoma cell lines) incubated for 48 hrs by sulforhodamine B assay

[40] = system: Panel melanoma (Carcinoma cell lines); assay: cells; details: Homo sapiens, time 48 hrs
Description: Growth inhibition of human Panel melanoma (Carcinoma cell lines) incubated for 48 hrs by sulforhodamine B assay

[41] = system: Panel ovarian (Carcinoma cell lines); assay: cells; details: Homo sapiens, time 48 hrs
Description: Growth inhibition of human Panel ovarian (Carcinoma cell lines) incubated for 48 hrs by sulforhodamine B assay

[42] = system: Panel renal (Carcinoma cell lines); assay: cells; details: Homo sapiens, time 48 hrs
Description: Growth inhibition of human Panel renal (Carcinoma cell lines) incubated for 48 hrs by sulforhodamine B assay

[43] = system: Panel prostate (Carcinoma cell lines); assay: cells; details: Homo sapiens, time 48 hrs
Description: Growth inhibition of human Panel prostate (Carcinoma cell lines) incubated for 48 hrs by sulforhodamine B assay

[44] = system: Panel breast (Carcinoma cell lines); assay: cells; details: Homo sapiens, time 48 hrs
Description: Growth inhibition of human Panel breast (Carcinoma cell lines) incubated for 48 hrs by sulforhodamine B assay

[45] = system: Panel NCI-60 (60 carcinoma cell lines); assay: cells; details: Homo sapiens, time 48 hrs
Description: Growth inhibition of human Panel NCI-60 (60 carcinoma cell lines) incubated for 48 hrs by sulforhodamine B assay

[46] = read-out: LC50 (the source's name)

COc1cc2ncnc(Nc3ccc(F)c(Cl)c3)c2cc1OCCCN1CCOCC1 [GEFITINIB]
GI50 [1]: 3540 nM

CC(C)c1ccc(Nc2ccc3c(OCCCN4CCN(C)CC4)cccc3n2)cc1
GI50 [2]: 3740 nM
GI50 [3]: 2050 nM
GI50 [4]: 2850 nM
GI50 [5]: 15600 nM
GI50 [6]: 11900 nM
GI50 [7]: 10600 nM
GI50 [8]: 18800 nM
GI50 [9]: 11900 nM
GI50 [10]: 11000 nM
GI50 [11]: 5440 nM
GI50 [12]: 19900 nM
GI50 [13]: 5900 nM
GI50 [14]: 1940 nM
GI50 [15]: 2160 nM
GI50 [16]: 11300 nM
GI50 [17]: 3630 nM
GI50 [18]: 12800 nM
GI50 [19]: 3280 nM
GI50 [20]: 1860 nM
GI50 [21]: 1890 nM
GI50 [22]: 5650 nM
GI50 [23]: 2170 nM
GI50 [24]: 16100 nM
GI50 [25]: 14400 nM
GI50 [26]: 13900 nM
GI50 [27]: 17800 nM
GI50 [28]: 16400 nM
GI50 [29]: 7280 nM
GI50 [30]: 16500 nM
GI50 [31]: 12900 nM
GI50 [32]: 12900 nM
GI50 [33]: 3210 nM
GI50 [34]: 2110 nM
GI50 [35]: 16900 nM
GI50 [36]: 12300 nM
GI50 [1]: 4240 nM
GI50 [37]: 13200 nM
GI50 [38]: 4850 nM
GI50 [39]: 9250 nM
GI50 [40]: 6620 nM
GI50 [41]: 15600 nM
GI50 [42]: 13200 nM
GI50 [43]: 13400 nM
GI50 [44]: 9950 nM
GI50 [45]: 7760 nM

Fc1cc(Nc2ccc3c(OCCCN4CCOCC4)cccc3n2)ccc1Cl
GI50 [2]: 2480 nM
GI50 [3]: 1910 nM
GI50 [4]: 1690 nM
GI50 [5]: 2960 nM
GI50 [6]: 1710 nM
GI50 [7]: 2400 nM
GI50 [8]: 2760 nM
GI50 [9]: 2210 nM
GI50 [10]: 2530 nM
GI50 [11]: 3070 nM
GI50 [12]: 1720 nM
GI50 [13]: 2760 nM
GI50 [14]: 1400 nM
GI50 [15]: 1530 nM
GI50 [16]: 2300 nM
GI50 [17]: 1970 nM
GI50 [18]: 1860 nM
GI50 [19]: 1850 nM
GI50 [20]: 1710 nM
GI50 [21]: 1820 nM
GI50 [22]: 2180 nM
GI50 [23]: 2320 nM
GI50 [24]: 3190 nM
GI50 [25]: 3080 nM
GI50 [26]: 3750 nM
GI50 [27]: 4030 nM
GI50 [28]: 2420 nM
GI50 [29]: 2160 nM
GI50 [30]: 2010 nM
GI50 [31]: 1650 nM
GI50 [32]: 2080 nM
GI50 [33]: 1680 nM
GI50 [34]: 1530 nM
GI50 [35]: 2190 nM
GI50 [36]: 2080 nM
GI50 [1]: 2180 nM
GI50 [37]: 2410 nM
GI50 [38]: 1970 nM
GI50 [39]: 2160 nM
GI50 [40]: 2010 nM
GI50 [41]: 3070 nM
GI50 [42]: 2420 nM
GI50 [43]: 2850 nM
GI50 [44]: 2480 nM
GI50 [45]: 2240 nM

CN1CCN(CCCOc2cccc3nc(Nc4ccc(Cl)c(F)c4)ccc23)CC1
GI50 [3]: 1470 nM
GI50 [5]: 1960 nM
GI50 [6]: 1450 nM
GI50 [7]: 1330 nM
GI50 [8]: 2050 nM
GI50 [9]: 1750 nM
GI50 [10]: 1700 nM
GI50 [11]: 1910 nM
GI50 [12]: 1750 nM
GI50 [13]: 1560 nM
GI50 [14]: 1400 nM
GI50 [15]: 1410 nM
GI50 [16]: 1770 nM
GI50 [17]: 1790 nM
GI50 [19]: 1810 nM
GI50 [20]: 1640 nM
GI50 [21]: 1720 nM
GI50 [22]: 2040 nM
GI50 [23]: 2050 nM
GI50 [24]: 1950 nM
GI50 [25]: 1700 nM
GI50 [26]: 3130 nM
GI50 [27]: 2020 nM
GI50 [28]: 2390 nM
GI50 [29]: 1960 nM
GI50 [30]: 1810 nM
GI50 [31]: 1570 nM
GI50 [32]: 1760 nM
GI50 [33]: 1310 nM
GI50 [34]: 1680 nM
GI50 [35]: 2120 nM
GI50 [36]: 1720 nM
GI50 [1]: 1900 nM
LC50 (50% lethal concentration) [1]: 53900 nM
TGI [1]: 4280 nM
GI50 [37]: 1750 nM
LC50 (50% lethal concentration) [37]: 9980 nM
TGI [37]: 3880 nM
GI50 [38]: 1620 nM
TGI [38]: 3170 nM
CC50 [38, 46]: 6210 nM
GI50 [39]: 1740 nM
TGI [39]: 3350 nM
CC50 [39, 46]: 6460 nM
GI50 [40]: 1820 nM
LC50 [40]: 6770 nM
TGI [40]: 3500 nM
GI50 [41]: 1990 nM
LC50 [41]: 11300 nM
TGI [41]: 4870 nM
GI50 [42]: 2220 nM
LC50 (lethal concentration 50%) [42]: 19800 nM
TGI [42]: 6210 nM
GI50 [43]: 1760 nM
LC50 (concentration killing 50% of cells) [43]: 6210 nM
TGI [43]: 2800 nM
GI50 [44]: 1840 nM
TGI [44]: 4500 nM
CC50 [44, 46]: 13200 nM
GI50 [45]: 1820 nM
TGI [45]: 3890 nM
CC50 [45, 46]: 9120 nM

Clc1cc(Cl)cc(Nc2ccc3c(OCCCN4CCOCC4)cccc3n2)c1
GI50 [2]: 2360 nM
GI50 [3]: 2210 nM
GI50 [5]: 2600 nM
GI50 [6]: 2290 nM
GI50 [7]: 2030 nM
GI50 [8]: 3160 nM
GI50 [9]: 2940 nM
GI50 [10]: 2510 nM
GI50 [11]: 2430 nM
GI50 [12]: 1820 nM
GI50 [13]: 1820 nM
GI50 [14]: 1750 nM
GI50 [15]: 1760 nM
GI50 [16]: 2000 nM
GI50 [17]: 1920 nM
GI50 [19]: 1980 nM
GI50 [20]: 1720 nM
GI50 [21]: 1650 nM
GI50 [22]: 2050 nM
GI50 [23]: 2010 nM
GI50 [24]: 3900 nM
GI50 [25]: 2920 nM
GI50 [26]: 10300 nM
GI50 [27]: 3540 nM
GI50 [28]: 2390 nM
GI50 [29]: 2260 nM
GI50 [30]: 2380 nM
GI50 [31]: 1510 nM
GI50 [32]: 1940 nM
GI50 [33]: 1740 nM
GI50 [34]: 1800 nM
GI50 [35]: 2510 nM
GI50 [36]: 2080 nM
GI50 [1]: 2350 nM
GI50 [37]: 2530 nM
GI50 [38]: 1830 nM
GI50 [39]: 2180 nM
GI50 [40]: 3020 nM
GI50 [41]: 4020 nM
GI50 [42]: 3960 nM
GI50 [43]: 2490 nM
GI50 [44]: 3330 nM
GI50 [45]: 2570 nM

From ChEMBL document CHEMBL4715724, “Novel 5-substituted-2-anilinoquinolines with 3-(morpholino or 4-methylpiperazin-1-yl)propoxy moiety as broad spectrum antiproliferative agents: Synthesis, cell based assays and kinase screening” (Bioorg Med Chem Lett, 2016)
